The subject of one assay is pancreatic cancer. To be noted: in combination with SBRT; cited from earlier work.
Assay [1] concerns 3T3 mouse fibroblast cells. Put plainly: MTS assay of radiosensitization after X-ray irradiation. Format: cell-based. The following applies: 1 mM, 10 hours; X-rays at 4 and 6 Gy. How it is done: Our initial evaluation of radiosensitization via intracellular GNP formation was performed with 3T3 mouse fibroblast cells. […] Radiosensitization with intracellular GNC formation (i.e., delivery of Au^3+) was compared with pre-fabricated albumin-coated GNCs (Albumin-GNC) prepared according to work by Xie^46 and control cells without treatment via MTS assay (FIG. 3B).
3T3 cells were first incubated with either 1 mM of sodium chloroaurate or albumin-GNCs (0.1 mM Au^0)in cell culture media for 10 hours. Then, the cells including the nontreated control were irradiated with X-rays at dosages of 0, 4 and 6 Gy in the X-ray X-RAD 225 CX irradiator system (Precision).
In our future studies we will use a standard clonogenic survival assay for quantitation of the radiosensitization effect.

The subject of assay [2] is pancreatic cancer cells (MIAPACA2). The experiment in a line: Confocal fluorescence imaging of in situ GNC synthesis. It counts as cell-based, human. How it is done: FIG. 4 presents fluorescence confocal images of non-cancerous (HPDE) and cancerous (MIAPaCa2) pancreatic cells treated with either 1 mM of Au^3+ gold ions or premade albumin-GNCs at 1 mM Au^0 for 24 hours. (From left to right) Cells: untreated; treated with albumin-GNCs; treated with Au^3+ gold ions. […] The strong red fluorescence in cancer cells indicated intracellular synthesis of GNCs from gold ions. Scale bars are 25 μm.
We compared in situ synthesis of GNCs by pancreatic cancer cells (MIAPACA2) and pancreatic noncancerous cells (HPDE) (FIG. 4). Confocal fluorescence images were obtained using a Leica TCS SP8 confocal microscope with 561 nm excitation and 610 nm emission optimized for detection of GNCs.

Each structure is given as a SMILES string.

Turning to `Nc1ccn([C@@H]2O[C@H](CO)[C@@H](O)C2(F)F)c(=O)n1` [gemcitabine], in the assay with pancreatic cancer, the “overall survival (OS)” value is listed as 13.9 months.
In the case of `[Cl][Au-]([Cl])([Cl])[Cl].[Na+]` [sodium chloroaurate], the “radiosensitization by in situ synthetized GNCs as compared to Albumin-GNC control (MTS)” value in assay [1] was “significant increase in radiosensitization”. Moreover, the “intracellular distribution of fluorescence from GNCs” value in assay [2] (MIAPACA2, optical sectioning) is given as “uniformly distributed throughout the intracellular space with a significant fraction in nuclei”. The “GNC fluorescence / GNC formation” value in assay [2] (MIAPACA2, 1 mM, 24 hours, 561 nm excitation, 610 nm emission) was “striking increase in GNC formation”.

Values taken from patent US20230256094A1, “CANCER RADIOSENSITIZATION BY IN SITU FORMATION OF GOLD NANOPARTICLES AND/OR GOLD NANOCLUSTERS” (BOARD OF REGENTS, THE UNIVERSITY OF TEXAS SYSTEM, priority 2020, published 2023).
